This passage reports logD results from the SangsterLogP compilation.

The nature of data set [1]: method code SF-CR, from DOI: 10.1016/s0008-6215(00)84247-0, PMID: 18283. As to conditions: pH 7.5.
Data set [2] in a line: method code SF-AS, from DOI: 10.1016/s0008-6215(00)84247-0, PMID: 18283. As to conditions: pH 7.5.

Take `CCCCCS[C@@H]1O[C@H](CO)[C@H](O)[C@H](O)[C@H]1O`: in data set [1], the logD was found to be 0.39.
`OC[C@H]1O[C@@H](SCCc2ccccc2)[C@H](O)[C@@H](O)C1O` (stereo in doubt) yielded a logD in data set [2] of -0.1.
In data set [1], `CCCCCCCO[C@@H]1O[C@H](CO)[C@H](O)[C@H](O)[C@H]1O` yielded a logD of 0.73.
Regarding `OC[C@H]1O[C@@H](SCc2ccccc2)[C@H](O)[C@@H](O)[C@H]1O`, the log distribution coefficient (logD) in data set [2] is -0.47.
Consider `CCCCCCCS[C@@H]1O[C@H](CO)[C@H](O)[C@H](O)[C@H]1O`, for which, in data set [1], the log distribution coefficient (logD) was found to be 1.5.
The compound `CCCCS[C@@H]1O[C@H](CO)[C@H](O)[C@H](O)[C@H]1O` returned a logD in data set [1] of -0.54.
In data set [1], `CCCS[C@@H]1O[C@H](CO)[C@H](O)[C@H](O)[C@H]1O` gave a logD of -1.18.
Consider `OCC1OC(SCCCc2ccccc2)C(O)C(O)C1O` (stereo unspecified), for which, in data set [2], the log distribution coefficient (logD) was 0.38.
With `CCCCCOC1C(O)C(S)OC(CO)C1O` (stereo unspecified), the logD in data set [1] is -0.18.
On to `CCOC1O[C@H](CO)[C@H](O)[C@H](O)[C@H]1O` (stereo in doubt), for which, in data set [1], the logD is -2.28.
The compound `CCCCCOC1C(O)C(O)OC(CO)C1O` (stereo unspecified) showed a pH-dependent lipophilicity (logD) in data set [1] of -0.8.
Compound `CCCCCO[C@@H]1O[C@H](CO)[C@H](O)[C@H](O)[C@H]1O` had a pH-dependent lipophilicity (logD) in data set [1] of -0.42.
The compound `OC[C@H]1O[C@@H](Sc2ccccc2)[C@H](O)[C@@H](O)[C@H]1O` registered a pH-dependent lipophilicity (logD) in data set [2] of -0.56.
In turn, `CCCO[C@@H]1O[C@H](CO)[C@H](O)[C@H](O)[C@H]1O` displayed a logD in data set [1] of -1.66.
The compound `CCCCCCS[C@@H]1O[C@H](CO)[C@H](O)[C@H](O)[C@H]1O` returned a pH-dependent lipophilicity (logD) in data set [1] of 0.86.
In turn, `CC(C)S[C@@H]1O[C@H](CO)[C@H](O)[C@H](O)[C@H]1O` showed a logD in data set [1] of -1.26.
As for `CCCCCCCCS[C@@H]1O[C@H](CO)[C@H](O)[C@H](O)[C@H]1O`, the pH-dependent lipophilicity (logD) in data set [1] was determined as 2.13.
Same read-out and setting: the value for `CCCCCCO[C@@H]1O[C@H](CO)[C@H](O)[C@H](O)[C@H]1O` was 0.16; that for `CCCCCCCCO[C@@H]1O[C@H](CO)[C@H](O)[C@H](O)[C@H]1O` was 1.46; that for `CCS[C@@H]1O[C@H](CO)[C@H](O)[C@H](O)[C@H]1O` was -1.51.
The same measure, in the same setting: the value for `CCCCO[C@@H]1O[C@H](CO)[C@H](O)[C@H](O)[C@H]1O` was -1.04.
